Data from patent US20180186796A1, “COMPOUNDS AND USES THEREOF” (LEAD DISCOVERY SIENA S.R.L., priority 2014, published 2018).
≈ marks a conversion by molar mass, not a printed value.

What was measured:
U87 cells = experiment: Low density growth assay; format: cell-based, human; details: 4Gy plus 1 μM or 10 μM Si306, 15 days
Description: U87 cells capacity for growth at clonal density, was evaluated by plating cells at density of 10 cells/cm^2 in 10% fetal bovine supplemented DMEM. After 2 weeks of culture, adherent cells were fixed with cold methanol, washed with PBS/BSA and air-dried. Adherent cells were stained with 0.5% crystal violet for 15 minutes at room temperature. The stained colonies were photomicrographed and analyzed by number and size with the public domain software ImageJ (by Wayne Rasband, http://rsb.info.nih.gov/ij/). Mean and SD values of at least three different experiments are shown.

human fibroblast wi38 = experiment: TGF-beta induced myofibroblast differentiation, Western blot; format: cell-based; details: Si306 1 μM
Description: FIG. 17. Western blot analysis of PDGFR-beta and alpha-SMA expression.
Total cell lysates were obtained by incubating cells in a lysis buffer containing 1% triton, 0.1% SDS, 2 mM CaCl2, 10 mg/ml orthovanadate, and 1× protease inhibitors cocktail (Sigma, St. Louis, […]., USA). Protein content was determined using the Protein Assay Kit 2 (Bio-Rad Laboratories, Hercules, Calif., USA). Sixty micrograms of proteins were electrophoresed in 10% SDS-polyacrylamide gel. After electrophoresis gels were placed onto Trans-Blot Turbo mini nitrocellulose transfer pack and transferred using Trans-Bolt Turbo Transfer System (Bio-Rad Laboratories, Hercules, Calif., USA). The membrane was incubated with 1 μg/ml primary antibody and then with appropriate horseradish peroxidase-conjugated secondary antibodies. Primary antibodies β-actin, PDGFR-beta, alpha-SMA were purchased from Cell Signaling Technology; Protein bands were visualized using a chemiluminescent detection system (Thermo Scientific, Rockford, Ill., USA) and signals were digitally acquired by Chemidoc XRS system (Bio-Rad Laboratories).

PAMPA, BBB permeability = details: Membrane Retention, BBB

Description for Water solubility assay: Each solid compound (1 mg) was added to 1 mL of water. […] The suspensions were filtered through a 0.45 μm nylon filter (Acrodisc), and the solubilized compound determined by LC-MS-MS assay. For each compound the determination was performed in triplicate. […] The flow rate was 0.2 mL min-^−1 and injection volume was 5 μL. The instrument operated in positive mode and parameters were: detector 1850 V, drying gas pressure 25.0 psi, desolvation temperature 300.0° C., nebulizing gas 40.0 psi, needle 5000 V and shield 600 V. Nitrogen was used as nebulizer gas and drying gas.
Solid compound (1 mg) was added to 1 mL of water. […] The suspensions were filtered through a 0.45-μm nylon filter (Acrodisc), and the solubilised compound determined by LC-UV-MS assay. The determination was performed in triplicate.
Chromatographic analysis was performed with the method above reported and quantification of compounds was made by comparison with apposite calibration curves realized with standard solutions in methanol.

Compound: ClC(Cn1ncc2c(Nc3cccc(Br)c3)nc(SCCN3CCOCC3)nc21)c1ccccc1 (stereo not drawn) [Si306, N-(3-Bromophenyl)-1-(2-chloro-2-phenylethyl)-6-[(2-morpholin-4-ylethyl)thio]-1H-pyrazolo[3,4-d]pyrimidin-4-amine]
- number of colonies, combination with radiotherapy (U87 cells): reduced significantly the number of colonies
- expression of PDGFR and alpha-SMA downstream of TGF-beta (human fibroblast wi38): able to block the expression of PDGFR and alpha-SMA
- PAMPA BBB (MR %) (PAMPA, BBB permeability): (41.0) %
- H2O Solubility (Water solubility assay; Table 6): 3.7 µg/mL
- H2O Sol. (Water solubility assay; Table 8, 20° C., 24 h): 3.70 µg/mL
- solubility at 24 h (Water solubility assay; water, 20 °C, thermodynamic from solid): 6.61 µM (≈ 3.79 µg/mL)
